In paper PMC11822212, “High-throughput screening identifies Aurora kinase B as a critical therapeutic target for Merkel cell carcinoma” (Nature Communications, 2025):
Where a name gives a salt, the structure may show the parent alone. Read-outs that look alike come from different tables or passages of the source.

Tests used:
MCC13 cells (VN-MCC) = experiment: qHTS cell viability (CellTiter-Glo, 72 h; primary and follow-up small molecule screen); type: cell-based, human; details: for Area under the dose-response curve (AUC) MCC13: primary high-throughput screen, viability 72 h, n = 1
WAGA cells (VP-MCC) = experiment: as above; type: cell-based, human; details: for Area under the dose-response curve (AUC) WAGA: primary high-throughput screen, viability 72 h, n = 1
UISO cells (VN-MCC) = experiment: as above; type: cell-based, human; details: for Area under the dose-response curve (AUC) UISO: primary high-throughput screen, viability 72 h, n = 1
MKL-2 cells (VP-MCC) = experiment: as above; type: cell-based, human; details: for Area under the dose-response curve (AUC) MKL-2: primary high-throughput screen, viability 72 h, n = 1
MCC26 cells (VN-MCC) = experiment: as above; type: cell-based, human; details: for Area under the dose-response curve (AUC) MCC26: primary high-throughput screen, viability 72 h, n = 1
MKL-1 cells (VP-MCC) = experiment: as above; type: cell-based, human; details: for Area under the dose-response curve (AUC) MKL-1: primary high-throughput screen, viability 72 h, n = 1
HACAT cells = experiment: qHTS cell viability (CellTiter-Glo, 72 h; primary screen), control cell line; type: cell-based, human; details: for Area under the dose-response curve (AUC) HACAT: primary high-throughput screen, viability 72 h, n = 1
CRL-7250 cells = experiment: as above; type: cell-based; details: for Area under the dose-response curve (AUC) CRL7250: primary high-throughput screen, viability 72 h, n = 1
HEK293T cells = experiment: as above; type: cell-based, human; details: for Area under the dose-response curve (AUC) HEK293T: primary high-throughput screen, viability 72 h, n = 1
NIH-3T3 cells = experiment: as above; type: cell-based, mouse; details: for Area under the dose-response curve (AUC) NIH3T3: primary high-throughput screen, viability 72 h, n = 1
[1] = system: VN-MCC cell lines (MCC13, MCC26, UISO); experiment: qHTS cell viability, VN-MCC cell lines as a group (mean AUC, VN.MCC.avg); type: cell-based, human
[2] = system: VP-MCC cell lines (WAGA, MKL-1, MKL-2); experiment: qHTS cell viability, VP-MCC cell lines as a group (mean AUC, VP.MCC.avg); type: cell-based, human
[3] = system: six MCC cell lines and four control cell lines; experiment: qHTS cell viability, all 10 cell lines screened; type: cell-based
[4] = area under the dose-response curve, MCC13 cells, AUC<450 = reduced viability
[5] = area under the dose-response curve, WAGA cells, AUC<450 = reduced viability
[6] = area under the dose-response curve, UISO cells, AUC<450 = reduced viability
[7] = area under the dose-response curve, MKL-2 cells, AUC<450 = reduced viability
[8] = area under the dose-response curve, MCC26 cells, AUC<450 = reduced viability
[9] = area under the dose-response curve, MKL-1 cells, AUC<450 = reduced viability
[10] = area under the dose-response curve, HACAT control cells, AUC<450 = reduced viability
[11] = area under the dose-response curve, CRL7250 control cells, AUC<450 = reduced viability
[12] = area under the dose-response curve, HEK293T control cells, AUC<450 = reduced viability
[13] = area under the dose-response curve, NIH3T3 control cells, AUC<450 = reduced viability

Row | SMILES | Area under the dose-response curve (AUC) MCC13 (MCC13 cells (VN-MCC)) | Area under the dose-response curve (AUC) WAGA (WAGA cells (VP-MCC)) | Area under the dose-response curve (AUC) UISO (UISO cells (VN-MCC)) | Area under the dose-response curve (AUC) MKL-2 (MKL-2 cells (VP-MCC)) | Area under the dose-response curve (AUC) MCC26 (MCC26 cells (VN-MCC)) | Area under the dose-response curve (AUC) MKL-1 (MKL-1 cells (VP-MCC)) | Area under the dose-response curve (AUC) HACAT (HACAT cells) | Area under the dose-response curve (AUC) CRL7250 (CRL-7250 cells) | Area under the dose-response curve (AUC) HEK293T (HEK293T cells) | Area under the dose-response curve (AUC) NIH3T3 (NIH-3T3 cells) | MCC13_AUC (MCC13 cells (VN-MCC); [4]) | WAGA_AUC (WAGA cells (VP-MCC); [5]) | UISO_AUC (UISO cells (VN-MCC); [6]) | MKL2_AUC (MKL-2 cells (VP-MCC); [7]) | MCC26_AUC (MCC26 cells (VN-MCC); [8]) | MKL1_AUC (MKL-1 cells (VP-MCC); [9]) | HACAT_AUC (HACAT cells; [10]) | CRL7250_AUC (CRL-7250 cells; [11]) | HEK293T_AUC (HEK293T cells; [12]) | NIH3T3_AUC (NIH-3T3 cells; [13]) | also measured
1 | c1cc(-c2sc(-c3ccncc3)c(-c3ccncc3)c2-c2ccncc2)ccn1 [NSC-75503, reference compound] | 492.9 | 489.4 | 456.0 | 550.2 | 468.9 | 478.1 | 453.3 | 461.0 | 450.5 | 481.5 | – | – | – | – | – | – | – | – | – | – | –
2 | Cc1ncc(CNC(=O)N(CCCl)N=O)c(N)n1 [Nimustine] | – | – | – | – | – | – | – | – | – | – | – | – | – | – | – | – | – | – | – | – | MCC13_AUC (MCC13 cells (VN-MCC)): 434.577; WAGA_AUC (WAGA cells (VP-MCC)): 465.895; UISO_AUC (UISO cells (VN-MCC)): 443.983; MKL2_AUC (MKL-2 cells (VP-MCC)): 504.085; MCC26_AUC (MCC26 cells (VN-MCC)): 438.698; MKL1_AUC (MKL-1 cells (VP-MCC)): 478.611; HACAT_AUC (HACAT cells): 461.645; CRL7250_AUC (CRL-7250 cells): 491.102; HEK293T_AUC (HEK293T cells): 481.182; NIH3T3_AUC (NIH-3T3 cells): 486.849
3 | C[N+]1(CC2COC(c3ccccc3)(C3CCCCC3)O2)CCCCC1 (centres unmarked) [Oxapium iodide] | – | – | – | – | – | – | – | – | – | – | 501.634 | 422.785 | 505.529 | 426.411 | 482.458 | 436.858 | 474.271 | 483.841 | 460.835 | 474.75 | –
4 | C[N+]1(C)[C@@H]2C[C@@H](OC(=O)[C@H](CO)c3ccccc3)C[C@H]1[C@@H]1O[C@@H]12 [Scopolamine methylbromide, reference compound] | 481.8 | 491.2 | 492.6 | 496.7 | 475.2 | 484.0 | 476.9 | 474.6 | 479.5 | 468.1 | – | – | – | – | – | – | – | – | – | – | –
5 | COc1cc2nc(N3CCN(C(=O)C4CCCO4)CC3)nc(N)c2cc1OC (centres unmarked) [Terazosin hydrochloride] | – | – | – | – | – | – | – | – | – | – | – | – | – | – | – | – | – | – | – | – | Control-VN-MCC [1]: 50.4982; Control-VP-MCC [2]: 51.2361; Control-MCC [3]: 50.8672
6 | CC(C)(C)NCC(O)c1cc(O)cc(O)c1.CC(C)(C)NCC(O)c1cc(O)cc(O)c1.O=S(=O)(O)O (centres unmarked) [Terbutaline hemisulfate] | – | – | – | – | – | – | – | – | – | – | 446.456 | 449.356 | 427.113 | 440.746 | 430.481 | 438.666 | 496.73 | 479.05 | 465.552 | 463.76 | –
7 | CN1CCN(CCCN2c3ccccc3Sc3ccc(C(F)(F)F)cc32)CC1 [Trifluoperazine hydrochloride, reference compound] | 486.4 | 495.2 | 500.3 | 488.7 | 481.8 | 497.8 | 455.5 | 412.6 | 471.8 | 467.6 | – | – | – | – | – | – | – | – | – | – | –
8 | COc1cc(C(=O)NCc2ccc(OCCN(C)C)cc2)cc(OC)c1OC [Trimethobenzamide hydrochloride] | – | – | – | – | – | – | – | – | – | – | 447.793 | 468.296 | 426.826 | 453.926 | 425.084 | 452.093 | 491.547 | 477.417 | 452.936 | 459.509 | –
9 | O=C(O)/C=C(\CC(=O)O)C(=O)O [trans-Aconitic acid] | – | – | – | – | – | – | – | – | – | – | 525.202 | 441.902 | 494.852 | 378.194 | 496.696 | 435.147 | 490.879 | 486.622 | 467.145 | 503.673 | –
